Assay results from ChEMBL document CHEMBL1201862, “PubChem BioAssay data set” (2004).
Structures can show the parent of a compound that is named as a salt. Activity calls are given as the source filed them.

Experiments:
[1] = Jurkat T cell cytotoxicity, dose response, cytotoxicity control for P. falciparum gametocyte viability project, luminescence (AID 1117277); assay type: functional, cell-based;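 note: potency reflects loss of cellular ATP meaning fewer viable cells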
[2] = P. falciparum late gametocyte killing, dose response, luminescence (AID 1117278); assay type: functional, cell-based;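 note: gametocytes exposed to compound for 24 hours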
[3] = molecular target: T1, RNA-editing ligase 1, mitochondrial (Trypanosoma brucei brucei, UniProt P86926); experiment: TbREL1 ligase inhibitors, dose response, biochemical, fluorescence, Trypanosoma brucei (AID 1117295); assay type: functional
T1 sequence (P86926 whole entry): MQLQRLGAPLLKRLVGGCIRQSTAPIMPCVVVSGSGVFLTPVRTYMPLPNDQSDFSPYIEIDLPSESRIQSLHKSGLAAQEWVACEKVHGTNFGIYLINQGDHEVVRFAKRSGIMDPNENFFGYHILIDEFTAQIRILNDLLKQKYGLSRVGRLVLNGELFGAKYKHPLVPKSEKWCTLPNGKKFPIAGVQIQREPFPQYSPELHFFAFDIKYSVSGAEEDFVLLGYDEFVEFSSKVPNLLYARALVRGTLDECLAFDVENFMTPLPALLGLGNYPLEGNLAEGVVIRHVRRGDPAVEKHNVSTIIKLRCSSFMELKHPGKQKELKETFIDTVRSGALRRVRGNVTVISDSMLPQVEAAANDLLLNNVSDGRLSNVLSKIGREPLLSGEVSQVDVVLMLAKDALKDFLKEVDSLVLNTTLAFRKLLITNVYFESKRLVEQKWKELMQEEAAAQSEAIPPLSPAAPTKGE

cells = assay type: functional, cell-based; conditions: INS-1E
[4] = Dose-response inhibition of insulin secretion in a rat insulinoma line at 5 mM glucose (AID 1117331); assay type: functional, cell-based; conditions: INS-1E
[5] = HeLa 2N DNA content increase, dose response, cell-based, IC50 (AID 1117349); assay type: functional
[6] = HeLa 4N DNA content increase, dose response, cell-based, IC50 (AID 1117351); assay type: functional
[7] = Artemis endonuclease inhibitor potency, dose response, biochemical, fluorescence intensity (AID 720701); assay type: functional;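 note: Artemis endonuclease enzyme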
[8] = system: Streptococcus sp. 'group A'; experiment: growth inhibition of control SK(-) GAS strain, dose response, counter-screen for streptokinase expression inhibitor project, luminescence, kanamycin, BacTiterGlo, confirmation (AID 1900); assay type: functional, organism-based
Streptococcus = experiment: Group A Streptococcus viability loss, dose response, counter-screen for streptokinase expression inhibitor project, luminescence, BacTiterGlo (AID 1915); assay type: functional, organism-based;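 note: potency for reduction of bacterial viability or growth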
fMet-Leu-Phe receptor = molecular target: T2, fMet-Leu-Phe receptor (Homo sapiens, UniProt P21462); experiment: FPR ligands, dose response (AID 519); assay type: functional
T2 sequence (P21462 whole entry): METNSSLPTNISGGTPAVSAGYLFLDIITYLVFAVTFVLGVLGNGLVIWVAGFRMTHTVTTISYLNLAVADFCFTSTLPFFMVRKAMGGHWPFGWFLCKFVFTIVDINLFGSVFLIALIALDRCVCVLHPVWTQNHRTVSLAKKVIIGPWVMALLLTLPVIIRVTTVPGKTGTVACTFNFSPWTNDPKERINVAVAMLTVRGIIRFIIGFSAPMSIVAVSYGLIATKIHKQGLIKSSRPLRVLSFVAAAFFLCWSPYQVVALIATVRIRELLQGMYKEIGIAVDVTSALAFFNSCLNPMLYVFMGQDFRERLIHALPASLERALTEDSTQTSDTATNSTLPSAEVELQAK

[9] = cytotoxicity in OVCAR8 ovarian cancer cells, dose response, PAX8 project, cell-based, plate reader, dry powder samples (AID 743197); assay type: functional; conditions: OVCAR-8
Paired box protein Pax-8 = Paired box protein Pax-8 (Homo sapiens, UniProt Q06710); experiment: inhibitors of PAX8-driven TPO luciferase reporter, dose response, RMG-I cells, cherry-pick (AID 687027); assay type: functional, cell-based;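 note: luciferase reporter driven by Pax8 target thyroperoxidase promoter measured by SteadyGlo luminescence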
[10] = NIH:OVCAR-3 ovarian cancer cell cytotoxicity, dose response, PAX8 inhibitor project, plate reader, dry powder samples (AID 743044); assay type: functional, cell-based
[11] = A2780 ovarian cancer cell cytotoxicity, dose response, cytotoxicity control, plate reader, dry powder samples (AID 743046); assay type: functional, cell-based
Cytochrome P450 2C19 = Cytochrome P450 2C19 (Homo sapiens, UniProt P33261); experiment: Cytochrome panel assay with activity outcomes. Panel member name: p450-cyp2c19 Compounds with AC50 equal or less than 10 uM are considered active; assay type: functional; conditions: read-out: AC50
[12] = molecular target: T3, Fructose-bisphosphate aldolase (Mycobacterium tuberculosis, UniProt P9WQA3); experiment: Fluorescence-based biochemical high throughput dose response assay for inhibitors of the fructose-bisphosphate aldolase (FBA) of M. tuberculosis.; assay type: functional
T3 sequence (P9WQA3 whole entry): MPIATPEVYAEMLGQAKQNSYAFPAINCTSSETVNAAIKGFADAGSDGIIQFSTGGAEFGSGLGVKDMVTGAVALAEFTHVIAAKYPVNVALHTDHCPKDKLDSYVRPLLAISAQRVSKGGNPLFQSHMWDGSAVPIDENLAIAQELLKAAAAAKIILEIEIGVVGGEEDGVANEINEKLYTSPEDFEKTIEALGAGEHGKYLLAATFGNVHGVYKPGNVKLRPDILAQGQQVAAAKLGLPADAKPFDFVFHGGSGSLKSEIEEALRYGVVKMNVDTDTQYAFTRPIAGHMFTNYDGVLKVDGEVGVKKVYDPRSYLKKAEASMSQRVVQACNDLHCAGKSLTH

Cytochrome P450 1A2 = molecular target: T4, Cytochrome P450 1A2 (Homo sapiens, UniProt P05177);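 note: PubChem cytochrome P450 panel assay, CYP1A2 panel member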
T4 sequence (P05177 whole entry): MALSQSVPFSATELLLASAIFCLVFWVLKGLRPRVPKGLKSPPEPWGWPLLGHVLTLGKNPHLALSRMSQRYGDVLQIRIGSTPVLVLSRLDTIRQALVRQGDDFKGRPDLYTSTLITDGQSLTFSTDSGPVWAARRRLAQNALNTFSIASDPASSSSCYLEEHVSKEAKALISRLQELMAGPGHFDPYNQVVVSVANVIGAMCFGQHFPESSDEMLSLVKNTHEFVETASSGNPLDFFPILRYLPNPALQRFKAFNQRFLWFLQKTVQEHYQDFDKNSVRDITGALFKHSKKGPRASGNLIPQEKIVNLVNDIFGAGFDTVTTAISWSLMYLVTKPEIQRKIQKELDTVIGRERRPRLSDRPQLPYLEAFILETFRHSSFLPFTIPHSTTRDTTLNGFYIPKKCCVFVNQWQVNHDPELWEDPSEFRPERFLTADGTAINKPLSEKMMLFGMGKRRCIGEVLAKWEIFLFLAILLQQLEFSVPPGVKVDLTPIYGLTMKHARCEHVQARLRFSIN

[13] = MC4R antagonists, dose response, counter-screen for LGR2 antagonist project, cell-based, plate reader, cherry pick (AID 743444); assay type: functional;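 note: transfected HEK 293 cells stimulated with alpha-MSH peptide; potency of inhibitors of the alpha-MSH evoked signal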
[14] = HepG2 cell cytotoxicity, dose response, cytotoxicity control, plate reader, cherry-pick, antagonist series (AID 743416); assay type: functional, cell-based
[15] = HEK293 cell cytotoxicity, dose response, cytotoxicity control, plate reader, cherry-picked samples (AID 743446); assay type: functional, cell-based
HEK293 = experiment: inhibitors of LMP1-driven NF-kB reporter, dose response, cell-based, HEK293, luciferase, cherry-pick (AID 588343); assay type: functional; conditions: Homo sapiens
[16] = LGR2 antagonists, dose response, cell-based, HEK293, CRE-luciferase reporter, cherry pick, set 2 (AID 743343); assay type: functional;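 note: transfected cells were stimulated with diluted bursicon conditioned medium after compound addition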

Sequence of Paired box protein Pax-8 (Q06710 whole entry): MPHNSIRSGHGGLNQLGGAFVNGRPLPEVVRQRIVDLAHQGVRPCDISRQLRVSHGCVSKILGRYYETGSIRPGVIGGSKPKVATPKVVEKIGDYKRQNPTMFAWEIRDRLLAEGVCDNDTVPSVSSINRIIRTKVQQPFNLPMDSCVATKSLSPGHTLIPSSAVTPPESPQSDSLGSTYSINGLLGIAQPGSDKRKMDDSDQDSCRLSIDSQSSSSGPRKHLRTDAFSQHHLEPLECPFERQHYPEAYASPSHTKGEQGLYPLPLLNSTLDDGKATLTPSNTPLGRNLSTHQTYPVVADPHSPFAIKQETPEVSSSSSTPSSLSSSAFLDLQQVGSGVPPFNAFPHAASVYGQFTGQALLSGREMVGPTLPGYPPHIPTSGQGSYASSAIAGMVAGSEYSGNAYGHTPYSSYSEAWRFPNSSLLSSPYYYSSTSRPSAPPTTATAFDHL
Sequence of Cytochrome P450 2C19 (P33261 whole entry): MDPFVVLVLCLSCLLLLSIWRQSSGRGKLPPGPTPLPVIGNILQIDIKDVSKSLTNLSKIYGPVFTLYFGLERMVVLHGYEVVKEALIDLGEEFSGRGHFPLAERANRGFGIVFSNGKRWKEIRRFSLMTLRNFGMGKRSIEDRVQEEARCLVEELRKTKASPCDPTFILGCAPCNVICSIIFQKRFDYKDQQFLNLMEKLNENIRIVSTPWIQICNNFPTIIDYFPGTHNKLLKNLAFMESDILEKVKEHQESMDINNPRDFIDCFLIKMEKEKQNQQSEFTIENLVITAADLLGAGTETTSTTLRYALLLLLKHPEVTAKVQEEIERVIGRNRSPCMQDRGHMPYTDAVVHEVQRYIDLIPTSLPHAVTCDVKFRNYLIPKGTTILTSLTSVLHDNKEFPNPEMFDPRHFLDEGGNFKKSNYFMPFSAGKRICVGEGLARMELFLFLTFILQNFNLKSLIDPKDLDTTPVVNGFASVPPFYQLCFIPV

For `CCOC(=O)CNC(=O)c1cc(OC)cc(OC)c1`, which IC50 [1] is on record?
Its IC50 is > 83.3 µM (inactive).

What about the IC50 [2] of the same compound?
The IC50 was > 109 µM (inactive).

Which IC50 [3] does the source give for `COC(=O)C1=C(C)N(Cc2ccc(C(F)(F)F)cc2)C(NCc2ccccc2C(F)(F)F)=NC1c1ccccc1` (stereo not given) here?
Its IC50 is > 96.6 µM (inactive).

With `CN(C)CCC=C1c2ccccc2CCc2ccccc21` [AMITRIPTYLINE HYDROCHLORIDE] as the compound, how does the IC50 (cells) read?
Its IC50 is > 33.3 µM (inactive).

What about the IC50 [4] of the same compound?
The IC50 was 3 µM (active).

And the IC50 [5]?
The IC50 was > 10 µM (inactive).

What about the IC50 [6] of the same compound?
The IC50 was > 10 µM (inactive).

With `CC(C)Cn1c2c(c(O)c(C(=O)Nc3ncccc3O)c1=O)CCCC2` as the compound, how does the IC50 [7] read?
Its IC50 is 16.3 µM (active).

And the EC50 [8]?
The EC50 was 2.97 µM (active).

And the EC50 (Streptococcus)?
Its EC50 is 3.34 µM (active).

Which Ki (fMet-Leu-Phe receptor) does the source give for `COc1ccc(NC(=O)C(c2ccc(C)cc2)N(C)C(=O)c2cnccn2)cc1` (stereo not given) here?
Its Ki is > 66.7 µM (inactive).

For `C[C@@H]1CCCCO[C@H](CN(C)C(=O)C2CCCCC2)[C@H](C)CN([C@@H](C)CO)C(=O)c2cc(NS(=O)(=O)c3ccc(Cl)cc3)ccc2O1`, which AC50 [9] is on record?
The AC50 was 56.9 µM (active).

What about the AC50 (Paired box protein Pax-8) of the same compound?
Its AC50 is 10.8 µM (active).

What about the AC50 [10] of the same compound?
Its AC50 is 45.3 µM (active).

And the AC50 [11]?
Its AC50 is 43.4 µM (active).

What does the source list for `COc1ccc(C2C(C(=O)c3ccccc3)=C(O)C(=O)N2CC(C)O)c(OC)c1` (stereo not given)?
AC50 (Cytochrome P450 2C19): 6.31 µM (inconclusive); Ki (fMet-Leu-Phe receptor): 38.6 µM (inactive)

Which IC50 [12] does the source give for `COc1ccc2c(CN3CCCC3)cc(=O)oc2c1` here?
The IC50 was 2.52 µM (active).

With `CN(C)CCN(Cc1ccc(Cl)cc1)c1ccccn1` [CHLOROPYRAMINE] as the compound, how does the IC50 (cells) read?
Its IC50 is 16.8 µM (inactive).

What about the IC50 [4] of the same compound?
Its IC50 is 6.14 µM (inactive).

What about the AC50 (Cytochrome P450 1A2) of the same compound?
Its AC50 is 12.6 µM (inconclusive).

What does the source list for `CCCc1cc(O)nc(SCC(=O)N2CCN(S(=O)(=O)c3ccc4ccccc4c3)CC2)n1`?
IC50 [1]: > 83.3 µM (inactive); IC50 [2]: > 109 µM (inactive)

What does the source list for `COc1ccc(-c2[nH]ncc2-c2ccc3c(c2)OCCO3)c(O)c1`?
AC50 [13]: 0.723 µM (active); AC50 [14]: > 52 µM (inactive); AC50 [15]: > 52 µM (inactive); AC50 (HEK293): 1.78 µM (active); AC50 [16]: 2.97 µM (active)

Which results are given for `CCCCN1CCCC[C@H]1C(=O)Nc1c(C)cccc1C` [LEVOBUPIVACAINE HYDROCHLORIDE]?
IC50 (cells): > 33.3 µM (inactive); IC50 [4]: 27.2 µM (inactive)
